pEC50: −log10 of the molar value. Like-named read-outs stand apart in the source and are kept apart here.
Assays:
[1] = test system: DENV-2 16681 strain labeled with eGFP; assay: DENV-2 antiviral assay (eGFP fluorescence read-out in Vero cells); type: cell-based, Dengue virus; details: DENV-2 16681 eGFP, MOI 0.5, 3 days
Experimental: The antiviral activity of all the compounds of the invention was tested against the DENV-2 16681 strain which was labeled with enhanced green fluorescent protein (eGPF). The culture medium consists of minimal essential medium supplemented with 2% of heat-inactivated fetal calf serum, 0.04% gentamycin (50 mg/mL) and 2 mM of L-glutamine. Vero cells, obtained from ECACC, were suspended in culture medium and 25 μL was added to 384-well plates (2500 cells/well), which already contain the antiviral compounds. Typically, these plates contain a 5-fold serial dilution of 9 dilution steps of the test compound at 200 times the final concentration in 100% DMSO (200 nL). […] Finally, each plate contains wells which are assigned as virus controls (containing cells and virus in the absence of compound), cell controls (containing cells in the absence of virus and compound) and medium controls (containing medium in the absence of cells, virus and compounds). To the wells assigned as medium control, 25 μL of culture medium was added instead of Vero cells. Once the cells were added to the plates, the plates were incubated for 30 minutes at room temperature to allow the cells to distribute evenly within the wells. Next, the plates were incubated in a fully humidified incubator (37° C., 5% CO2) until the next day. Then, DENV-2 strain 16681, labeled with eGFP, was added at a multiplicity of infection (MOI) of 0.5. Therefore, 15 μL of virus suspension was added to all the wells containing test compound and to the wells assigned as virus control. In parallel, 15 μL of culture medium was added to the medium and cell controls. Next, the plates were incubated for 3 days in a fully humidified incubator (37° C., 5% CO2). At the day of the read out, the eGFP fluorescence was measured using an automated fluorescence microscope at 488 nm (blue laser). Using an in-house LIMS system, inhibition dose response curves for each compound were calculated and the half maximal effective concentration (EC50) was determined. Therefore, the percent inhibition (I) for every test concentration is calculated using the following formula: I=100*([…])/(SVC−SCC); ST, SCC and SVC are the amount of eGFP signal in the test compound, cell control and virus control wells, respectively. The EC50 represents the concentration of a compound at which the virus replication is inhibited with 50%, as measured by a 50% reduction of the eGFP fluorescent intensity compared to the virus control. The EC50 is calculated using linear interpolation (Table 1).

in vitro [2] = details: African green monkey
DENV-3 strain H87 = assay: Tetravalent RT-qPCR assay Protocol A, serotype 3; type: cell-based; details: Dengue virus, DENV3, 72 h; RT-qPCR serotype 3 H87, Vero cells, day 3
Experimental: (§1) The antiviral activity of the compounds of the invention was tested against DENV-1 strain TC974#666 (NCPV), DENV-2 strain 16681, DENV-3 strain H87 (NCPV) and DENV-4 strains H241 (NCPV) and EDEN (SG/06K2270DK1/2005; GenBank accession number QG398256) in a RT-qPCR assay. Therefore, Vero cells were infected with either DENV-1, or -2, or -3, or -4 in the presence or absence of test compounds. At day 3 post-infection, the cells were lysed and cell lysates were used to prepare cDNA of both a viral target (the 3′UTR of DENV; Table 2) and a cellular reference gene (β-actin, Table 2). Subsequently, a duplex real time PCR was performed on a Lightcycler480 instrument. The generated Cp value is inversely proportional to the amount of RNA expression of these targets. Inhibition of DENV replication by a test compound results in a shift of Cp's for the 3′UTR gene. On the other hand, if a test compound is toxic to the cells, a similar effect on β-actin expression will be observed. The comparative ΔΔCp method is used to calculate EC50, which is based on the relative gene expression of the target gene (3′UTR) normalized with the cellular housekeeping gene (β-actin). In addition, CC50 values are determined based on the Cp values acquired for the housekeeping gene β-actin.
(§2) The culture medium consisted of minimal essential medium supplemented with 2% of heat-inactivated fetal calf serum, 0.04% gentamycin (50 mg/mL) and 2 mM of L-glutamine. Vero cells, obtained from ECACC, were suspended in culture medium and 75 μL/well was added in 96-well plates (10000 cells/well), which already contain the antiviral compounds. […] In addition, each plate contains wells which are assigned as virus controls (containing cells and virus in the absence of compound) and cell controls (containing cells in the absence of virus and compound). Once the cells were added in the plates, the plates were incubated in a fully humidified incubator (37° C., 5% CO2) until the next day. Dengue viruses serotype-1, 2, 3 and 4 were diluted in order to obtain a Cp of ˜22-24 in the assay. Therefore, 25 μL of virus suspension, was added to all the wells containing test compound and to the wells assigned as virus control. In parallel, 25 μL of culture medium was added to the cell controls. Next, the plates were incubated for 3 days in a fully humidified incubator (37° C., 5% CO2). After 3 days, the supernatant was removed from the wells and the cells were washed twice with ice-cold PBS (−100 μL). The cell pellets within the 96-well plates were stored at −80° C. for at least 1 day. Next, RNA was extracted using the Cells-to-CT™ lysis kit, according to the manufacturer's guideline (Life Technologies). The cell lysates can be stored at −80° C. or immediately used in the reverse transcription step.
(§3) In preparation of the reverse transcription step, mix A (table 3A) was prepared and 7.57 μL/well was dispensed in a 96-well plate. After addition of 5 μL of the cell lysates, a five minute denaturation step at 75° C. was performed (table 3B). Afterwards, 7.43 μL of mix B was added (table 3C) and the reverse transcription step was initiated (table 3D) to generate cDNA.
(§4) Finally, a RT-qPCR mix was prepared, mix C (table 4A), and 22.02 μL/well was dispensed in 96-well LightCycler qPCR plates to which 3 μL of cDNA was added and the qPCR was performed according to the conditions in table 4B on a LightCycler 480.
(§5) Using the LightCycler software and an in-house LIMS system, dose response curves for each compound were calculated and the half maximal effective concentration (EC50) and the half maximal cytotoxic concentration (CC50) were determined (Tables 5-8).

DENV-2 strain 16681 = assay: Tetravalent RT-qPCR assay Protocol A, serotype 2; type: cell-based; details: Dengue virus, DENV2, 72 h; RT-qPCR serotype 2 16681, Vero cells, day 3
Experimental: as §1, §2, §3, §4, §5

DENV-4 strain H241 = assay: Tetravalent RT-qPCR assay Protocol A, serotype 4 H241; type: cell-based; details: Dengue virus, DENV4, 72 h; RT-qPCR serotype 4 H241, Vero cells, day 3
Experimental: as §1, §2, §3, §4, §5

DENV-1 strain TC974#666 = assay: Tetravalent RT-qPCR assay Protocol A, serotype 1; type: cell-based; details: Dengue virus, DENV1, 72 h; RT-qPCR serotype 1 TC974#666, Vero cells, day 3
Experimental: as §1, §2, §3, §4, §5

[3] = test system: DENV-4 strain EDEN (SG/06K2270DK1/2005); assay: Tetravalent RT-qPCR assay Protocol A, serotype 4 EDEN; type: cell-based; details: Dengue virus, DENV4, 72 h; RT-qPCR serotype 4 EDEN, Vero cells, day 3
Experimental: as §1, §2, §3, §4, §5

in vitro [4] = type: cell-based; details: African green monkey, CC50
Experimental: as §1, §2, §5

Vero cells [5] = details: African green monkey
Vero cells [6] = assay: in vitro; type: cell-based; details: African green monkey, 3 days
Experimental: as §1, §2, §5

Row | Structure (SMILES) | pEC50 [1] | CC50 (in vitro [2]) [nM] | pEC50 (DENV-3 strain H87) | pEC50 (DENV-2 strain 16681) | pEC50 (DENV-4 strain H241) | pEC50 (DENV-1 strain TC974#666) | pEC50 [3] | CC50 at 3 days (in vitro [4]) [nM] | CC50 (Vero cells [5]) [nM] | CC50 (Vero cells [6]) [nM]
1 | COc1cc(NC(C(=O)c2c[nH]c3cc(F)ccc23)c2ccc(F)cc2OCCO)cc(S(C)(=O)=O)c1 (single isomer, unassigned) [Compound 1A, 1-(6-fluoro-1H-indol-3-yl)-2-(4-fluoro-2-(2-hydroxyethoxy)phenyl)-2-((3-methoxy-5-(methylsulfonyl)phenyl)amino)ethanone] | 9.11 | 8600 | 7.17 | 8.96 | 6.54 | 8.07 | 8.44 | – | – | –
2 | COc1cc(NC(C(=O)c2c[nH]c3cc(Cl)ccc23)c2ccc(F)cc2OCCO)cc(S(C)(=O)=O)c1 (single isomer, unassigned) [Compound 2A, 1-(6-chloro-1H-indol-3-yl)-2-(4-fluoro-2-(2-hydroxyethoxy)phenyl)-2-((3-methoxy-5-(methylsulfonyl)phenyl)amino)-ethanone] | 9.49 | – | 7.32 | 9.40 | 6.77 | 8.55 | 8.64 | 4800 | 4900 | –
3 | COc1cc(NC(C(=O)c2c[nH]c3c(C)c(F)ccc23)c2ccc(F)cc2OCCO)cc(S(C)(=O)=O)c1 (single isomer, unassigned) [Compound 3A, 2-(4-fluoro-2-(2-hydroxyethoxy)phenyl)-1-(6-fluoro-7-methyl-1H-indol-3-yl)-2-((3-methoxy-5-(methylsulfonyl)phenyl)amino)ethanone] | 9.40 | – | 7.35 | 9.37 | 6.72 | 8.48 | 8.29 | > 2500 | 4000 | –
4 | COc1cc(NC(C(=O)c2c[nH]c3c(C)c(Cl)ccc23)c2ccc(F)cc2OCCO)cc(S(C)(=O)=O)c1 (single isomer, unassigned) [Compound 4B, 1-(6-chloro-7-methyl-1H-indol-3-yl)-2-(4-fluoro-2-(2-hydroxyethoxy)phenyl)-2-((3-methoxy-5-(methylsulfonyl)phenyl)amino)ethanone] | 9.70 | – | 7.26 | 9.68 | 6.85 | 8.48 | 8.49 | > 2500 | 3800 | –
5 | COc1cc(NC(C(=O)c2c[nH]c3cc(F)c(F)cc23)c2ccc(F)cc2OCCO)cc(S(C)(=O)=O)c1 (single isomer, unassigned) [Compound 5A, 1-(5,6-difluoro-1H-indol-3-yl)-2-(4-fluoro-2-(2-hydroxyethoxy)phenyl)-2-((3-methoxy-5-(methylsulfonyl)phenyl)-amino)ethanone] | 9.29 | – | 7.21 | 9.15 | 6.74 | 8.39 | 8.43 | > 2500 | 3400 | –
6 | COc1cc(NC(C(=O)c2c[nH]c3cc(OC)c(C)cc23)c2ccc(F)cc2OCCO)cc(S(C)(=O)=O)c1 (single isomer, unassigned) [Compound 6A, 2-(4-fluoro-2-(2-hydroxyethoxy)phenyl)-2-((3-methoxy-5-(methylsulfonyl)phenyl)amino)-1-(6-methoxy-5-methyl-1H-indol-3-yl)ethanone] | 9.33 | – | 7.37 | 9.08 | 6.96 | 8.46 | 8.47 | – | 5600 | –
7 | COc1cc(NC(C(=O)c2c[nH]c3cc(OC)c(OC(F)(F)F)cc23)c2ccc(F)cc2OCCO)cc(S(C)(=O)=O)c1 (single isomer, unassigned) [Compound 11B, 2-(4-fluoro-2-(2-hydroxyethoxy)phenyl)-2-((3-methoxy-5-(methyl-sulfonyl)phenyl)amino)-1-(6-methoxy-5-(trifluoromethoxy)-1H-indol-3-yl)ethanone] | 9.70 | – | 8.14 | 9.85 | 7.47 | 9.22 | – | > 2500 | 2400 | > 2500
8 | COc1cc(NC(C(=O)c2c[nH]c3c(C)cc(OC(F)(F)F)cc23)c2ccc(F)cc2OCCO)cc(S(C)(=O)=O)c1 (single isomer, unassigned) [Compound 12A, 2-(4-fluoro-2-(2-hydroxyethoxy)phenyl)-2-((3-methoxy-5-(methylsulfonyl)phenyl)amino)-1-(7-methyl-5-(trifluoromethoxy)-1H-indol-3-yl)ethanone] | 10.00 | – | 8.49 | 10.12 | 7.85 | 9.70 | – | > 1000 | 2200 | –
